Assay results published in US20190336496A1, “SELECTIVE BCL-2 INHIBITORS IN COMBINATION WITH AN ANTI-PD-1 OR AN ANTI-PD-L1 ANTIBODY FOR THE TREATMENT OF CANCERS” (AbbVie Inc., priority 2018, published 2019).

Tests used:
EMT6 = experiment: Venetoclax cell killing (CellTiter-Glo); assay type: cell-based, murine; conditions: Mus musculus, EMT6, 72 h; Breast Cancer; 10% FBS; 3 days
Method: (§1) Solid tumor cell lines were obtained from American Type Culture Collection (ATCC, Manassas, Va.) or the National Cancer Institute (NCI) and cultured in humidified incubators at 37° C. (5% CO2) in appropriate media (specified by supplier) supplemented with 10% fetal bovine serum (FBS) or 10% human serum (HS). 24 hours after plating into 96-well or 384-well tissue culture plates, venetoclax was added to cells at various concentrations (typically 0.010 to 10 μM in half-log increments) to perform concentration-response assessments of cell killing. After 1 to 5 days of culture in the presence of venetoclax, cell viability was assessed using CellTiter-Glo® reagent (Promega). IC50 values were determined by non-linear regression analysis of the concentration response data (Table 5 and Table 6).

CT26 = experiment: Venetoclax cell killing (CellTiter-Glo); assay type: cell-based, murine; conditions: Mus musculus, CT26, 72 h; Colorectal; 10% FBS; 3 days
Method: as §1

B16F10 = experiment: Venetoclax cell killing (CellTiter-Glo); assay type: cell-based, murine; conditions: Mus musculus, B16-F10, 72 h; Melanoma; 10% FBS; 3 days
Method: as §1

Renca = experiment: Venetoclax cell killing (CellTiter-Glo); assay type: cell-based, murine; conditions: Mus musculus, 72 h, Renal Adenocarcinoma, 10% FBS, 3 days
Method: as §1

LL2 = experiment: Venetoclax cell killing (CellTiter-Glo); assay type: cell-based, murine; conditions: Mus musculus, LL/2, 72 h; Lung Cancer; 10% FBS; 3 days
Method: as §1

4T1 = experiment: Venetoclax cell killing (CellTiter-Glo); assay type: cell-based, murine; conditions: Mus musculus, 4T1, 72 h; Breast Cancer; 10% FBS; 3 days
Method: as §1

MC38 = experiment: Venetoclax cell killing (CellTiter-Glo); assay type: cell-based, murine; conditions: Mus musculus, MC-38, 72 h; Colorectal; 10% FBS; 3 days
Method: as §1

B16F1 = experiment: Venetoclax cell killing (CellTiter-Glo); assay type: cell-based, murine; conditions: Mus musculus, B16-F1, 72 h; Melanoma; 10% FBS; 3 days
Method: as §1

[1] = tested on: CD4 T-cells co-cultured with MoDCs; experiment: Mixed lymphocyte reaction (MLR) assay; assay type: cell-based, human
Method: Mixed Lymphocyte Reaction (MLR) assay was used to examine venetoclax effect on T-cell function in response to immune stimulation. Monocytic-derived dendritic cells (MoDCs) were generated from fresh human blood. PBMCs were isolated using a Ficoll gradient. The PBMCs were allowed to adhere for 2 hours. After 2 hours, cells in suspension were removed. Fresh AIM V™ medium (ThermoFisher cat. #12055091) supplemented with granulocyte-macrophage colony-stimulating factor (GM-CSF, 80 ng/mL) and IL-4 (50 ng/mL) was added to the culture. After 5 days, the MoDCs were stimulated with IL-1α and TNF-α (0.2 ng/mL each) for 48 hours to increase major histocompatibility complex class II molecules (MHCII) expression. These activated MoDCs were then co-cultured with CD4 T-cells (Biospecialty Corp.) at a ratio of 10:1 (T-cells:MoDCs) in a mixed lymphocyte reaction (MLR). The cells were treated with control IgG (Isotype) or anti-PD-1 antibody (nivolumab or ABBV-181 along with either dimethyl sulfoxide (DMSO) or BCL-2 inhibitors venetoclax (Compound (I)) or Compounds (II) or (III). Antibodies were added at 10 μg/mL and the compound concentrations of venetoclax were as indicated in FIG. 11. The MLR was cultured for 5 days, after which the cells were analyzed by flow cytometry using an LSRFortessa™ X-20 instrument (BD Biosciences) to determine cell number and functional cytokine (IFNγ) responses.

NCI-H441 = experiment: Venetoclax cell killing (CellTiter-Glo); assay type: cell-based; conditions: Homo sapiens, NCI-H441, 72 h; Lung; 10% FBS; 3 days
Method: as §1

C32 = experiment: Venetoclax cell killing (CellTiter-Glo); assay type: cell-based; conditions: Homo sapiens, C32, 120 h; Melanoma; 10% FBS; 5 days
Method: as §1

Calu-6 = experiment: Venetoclax cell killing (CellTiter-Glo); assay type: cell-based; conditions: Homo sapiens, Calu-6, 72 h; Lung; 10% FBS; 3 days
Method: as §1

DU4475 = experiment: Venetoclax cell killing (CellTiter-Glo); assay type: cell-based; conditions: Homo sapiens, DU-4475, 120 h; Breast Cancer; 10% FBS; 5 days
Method: as §1

NCI-H209 = experiment: Venetoclax cell killing (CellTiter-Glo); assay type: cell-based; conditions: Homo sapiens, NCI-H209, 24 h; Lung; 10% FBS; 1 day
Method: as §1

NCI-H146 = experiment: Venetoclax cell killing (CellTiter-Glo); assay type: cell-based; conditions: Homo sapiens, NCI-H146, 48 h; Lung; 10% HS; 2 days
Method: as §1

NCI-H187 = experiment: Venetoclax cell killing (CellTiter-Glo); assay type: cell-based; conditions: Homo sapiens, NCI-H187, 48 h; Lung; 10% HS; 2 days
Method: as §1

NCI-H1417 = experiment: Venetoclax cell killing (CellTiter-Glo); assay type: cell-based; conditions: Homo sapiens, NCI-H1417, 48 h; Lung; 10% HS; 2 days
Method: as §1

NCI-H508 = experiment: Venetoclax cell killing (CellTiter-Glo); assay type: cell-based; conditions: Homo sapiens, NCI-H508, 72 h; Colorectal; 10% FBS; 3 days
Method: as §1

SW1463 = experiment: Venetoclax cell killing (CellTiter-Glo); assay type: cell-based; conditions: Homo sapiens, SW1463, 120 h; Colorectal; 10% FBS; 5 days
Method: as §1

Hs 695T = experiment: Venetoclax cell killing (CellTiter-Glo); assay type: cell-based; conditions: Homo sapiens, 120 h, Melanoma, 10% FBS, 5 days
Method: as §1

NCI-H524 = experiment: Venetoclax cell killing (CellTiter-Glo); assay type: cell-based; conditions: Homo sapiens, NCI-H524, 24 h; Lung; 10% FBS; 1 day
Method: as §1

SW480 = experiment: Venetoclax cell killing (CellTiter-Glo); assay type: cell-based; conditions: Homo sapiens, SW480, 120 h; Colorectal; 10% FBS; 5 days
Method: as §1

Calu-1 = experiment: Venetoclax cell killing (CellTiter-Glo); assay type: cell-based; conditions: Homo sapiens, Calu-1, 72 h; Lung; 10% FBS; 3 days
Method: as §1

CC1(C)CCC(CN2CCN(c3ccc(C(=O)NS(=O)(=O)c4ccc(NCC5CCOCC5)c([N+](=O)[O-])c4)c(Oc4cnc5[nH]ccc5c4)c3)CC2)=C(c2ccc(Cl)cc2)C1 [Compound (I), venetoclax]
IC50 (EMT6): > 10 µM | IC50 (CT26): > 10 µM | IC50 (B16F10): > 10 µM | IC50 (Renca): > 10 µM | IC50 (LL2): > 10 µM | IC50 (4T1): > 10 µM | IC50 (MC38): ~10 µM | IC50 (B16F1): > 10 µM | IFNγ detected in the supernatant ([1]; MLR 5 days): same amount | proportion of CD4+ T-cells that produce IFNγ ([1]; MLR 5 days, with isotype control or anti-PD-1 antibody): increase | number of CD4+ T-cells ([1]; MLR cultured 5 days, antibodies at 10 μg/mL): reduced | CD3+ T cell numbers ([1]; MLR, BCL-2 inhibitors at 1 μM): declined comparably | production of IFNγ (secreted) ([1]; MLR, BCL-2 inhibitors at 1 μM): not antagonized | proportion of CD3+ T-cells that produce IFNγ ([1]; MLR, BCL-2 inhibitors at 1 μM): increase | IC50 (NCI-H441): > 10 µM | IC50 (C32): > 10 µM | IC50 (Calu-6): > 10 µM | IC50 (DU4475): > 10 µM | IC50 (NCI-H209): > 10 µM | IC50 (NCI-H146): 4.2 µM | IC50 (NCI-H187): 3.04 µM | IC50 (NCI-H1417): > 5 µM | IC50 (NCI-H508): 4.45 µM | IC50 (SW1463): > 10 µM | IC50 (Hs 695T): > 10 µM | IC50 (NCI-H524): > 10 µM | IC50 (SW480): > 10 µM | IC50 (Calu-1): > 10 µM
